The record followed here is PMC11823630, “In vitro potentiation of tetracyclines in Pseudomonas aeruginosa by RW01, a new cyclic peptide” (Antimicrobial Agents and Chemotherapy, 2024).

Converted amounts (≈) assume the structure as drawn.

Experiment [1] concerns P. aeruginosa 125A. Briefly: MIC, CLSI broth microdilution in BD Phoenix AST Broth. The class given is cell-based, Pseudomonas aeruginosa. As to conditions: Pseudomonas aeruginosa; strain 125A; agent alone; 37°C, 18–22 h; three biological replicates. As for the experimental part: (§1) MIC for RW01 was also tested.
(§2) FIC of RW01 (FICRW01)=MIC of RW01 in combination/MIC of RW01 alone,FIC of antibiotic (FICATB)=MIC of ATB in combination/MIC of ATB alone,FICI=FICRW01 +FICATB.
(§3) FICI was interpreted as follows: synergistic effect if FICI is ≤0.5; additive effect if 0.5 < FICI ≤ 1.0; indifferent effect if 1.0 < FICI ≤ 2.0; and finally, antagonistic effect if FICI is >2.0. The average FICI considering the antibiotic MIC (no growth in any of the replicates) at different concentrations of RW01 was calculated ([28]).
On the technique in general: Broth dilution looks for growth in wells or tubes with falling amounts of substance.

Experiment [2] has as its system P. aeruginosa 125B. The experiment is described as above. The class given is cell-based, Pseudomonas aeruginosa. Conditions: Pseudomonas aeruginosa; strain 125B; agent alone; 37°C, 18–22 h; three biological replicates. As to the method: as §1, §2, §3
For experiment [3], the system named is P. aeruginosa 41A. The experiment is described as above. As to conditions: Pseudomonas aeruginosa; strain 41A; agent alone; 37°C, 18–22 h; three biological replicates. The class given is cell-based, Pseudomonas aeruginosa. As to the method:
as §1, §2, §3

In experiment [4] the test system is P. aeruginosa 41B. The description is as above. Conditions: Pseudomonas aeruginosa; strain 41B; agent alone; 37°C, 18–22 h; three biological replicates. The class given is cell-based, Pseudomonas aeruginosa. As to the method:
as §1, §2, §3

The subject of experiment [5] is P. aeruginosa PAO1. The description is as above. The class given is cell-based, Pseudomonas aeruginosa. As to conditions: Pseudomonas aeruginosa, PAO1, strain PAO1; agent alone; 37°C, 18–22 h; three biological replicates; read-out: MIC. As to the method:
as §1, §2, §3

The subject of experiment [6] is P. aeruginosa PAOUW. The experiment is described as above. The class given is cell-based, Pseudomonas aeruginosa. Conditions: Pseudomonas aeruginosa, strain PAOUW; agent alone; 37°C, 18–22 h; three biological replicates; read-out: MIC. As to the method:
as §1, §2, §3

The test system of experiment [7] is P. aeruginosa PAOUW∆oprF. The description is as above. The class given is cell-based, Pseudomonas aeruginosa. Conditions: Pseudomonas aeruginosa, strain PAOUWΔoprF; agent alone; 37°C, 18–22 h; three biological replicates. As to the method:
as §1, §2, §3

Experiment [8] relates to P. aeruginosa PAOΔmexR. Described as above. The class given is cell-based, Pseudomonas aeruginosa. As to conditions: for MIC: Pseudomonas aeruginosa. As for the experimental part: as §1, §2, §3
Experiment [9] concerns P. aeruginosa PAOΔmexZ. The experiment is described as above. The class given is cell-based, Pseudomonas aeruginosa. Conditions: Pseudomonas aeruginosa, strain PAOΔmexZ; agent alone; 37°C, 18–22 h; three biological replicates. As to the method: as §1, §2, §3
In experiment [10] the test system is P. aeruginosa PAOΔoprM. Described as above. As to conditions: Pseudomonas aeruginosa. The class given is cell-based, Pseudomonas aeruginosa. As to the method: as §1, §2, §3
The test system of experiment [11] is P. aeruginosa PAO1, WT. Briefly: MIC, Sensititre custom plate. The class given is cell-based. Conditions: Pseudomonas aeruginosa, PAO1, read-out: MIC, Sensititre. As to the method:
(§4) Selection of resistant mutants was performed for minocycline with and without RW01 in three independent replicates for wild-type P. aeruginosa reference strain PAO1. Tubes containing Mueller-Hinton broth (MHB) were inoculated and incubated for 24 h at 37°C. Afterward, 1/100 dilution of each tube was incubated at 37°C in MHB to late-exponential growth phase, measured by spectrophotometry at OD600. […] A control plate without antibiotic was included as inoculum control. After overnight incubation, colony counting of each treatment was performed to analyze the generation of resistant population. The mutant prevention concentration (MPC) was defined as the lowest concentration of antibiotic yielding no growth of resistant mutants. Selected mutants were checked for susceptibility profiles by using a Sensititre custom plate (Thermo Fisher Scientific, Massachusetts, USA) for Gram-negative bacteria, following the manufacturer’s instructions.

Experiment [12] relates to PAO1 mutant MIN16_1, nalD(T43P). Briefly: MIC, Sensititre custom plate. The class given is cell-based. As to conditions: Pseudomonas aeruginosa, PAO1, read-out: MIC, Sensititre. As for the experimental part: as §4
Experiment [13] relates to PAO1 mutant MIN16_2, nalC(aa9∆4), pilQ(nt46∆1). Briefly: MIC, Sensititre custom plate. The class given is cell-based. Conditions: Pseudomonas aeruginosa, PAO1, read-out: MIC, Sensititre. As for the experimental part: as §4
The subject of experiment [14] is PAO1 mutant MIN16_3, nfxB(nt79∆14), pilB(N349K). Briefly: MIC, Sensititre custom plate. The class given is cell-based. Conditions: Pseudomonas aeruginosa, PAO1, read-out: MIC, Sensititre. As to the method:
as §4

Experiment [15] relates to PAO1 mutant MIN16_4, nalC(T50P), pilM(Q62X). Briefly: MIC, Sensititre custom plate. The class given is cell-based. As to conditions: Pseudomonas aeruginosa, PAO1, read-out: MIC, Sensititre. As for the experimental part: as §4
Experiment [16] concerns PAO1 mutant MIN1_RW01_1, pmrB(Y98N). Briefly: MIC, Sensititre custom plate. The class given is cell-based. As to conditions: Pseudomonas aeruginosa, PAO1, read-out: MIC, Sensititre. As to the method:
as §4

In experiment [17] the test system is PAO1 mutant MIN1_RW01_2, mexR(G58E), pilB(G326D), hutC(Y181X). Briefly: MIC, Sensititre custom plate. Conditions: Pseudomonas aeruginosa, PAO1, read-out: MIC, Sensititre. The class given is cell-based. As to the method: as §4
The subject of experiment [18] is PAO1 mutant MIN1_RW01_3, pmrB(V215L). Briefly: MIC, Sensititre custom plate. The class given is cell-based. As to conditions: Pseudomonas aeruginosa, PAO1, read-out: MIC, Sensititre. As to the method:
as §4

In experiment [19] the test system is PAO1 mutant MIN2_RW01_1, pmrB(V215L). Briefly: MIC, Sensititre custom plate. The class given is cell-based. As to conditions: Pseudomonas aeruginosa, PAO1, read-out: MIC, Sensititre. As for the experimental part: as §4
Experiment [20] has as its system PAO1 mutant MIN2_RW01_2, pmrB(M292T). Briefly: MIC, Sensititre custom plate. The class given is cell-based. Conditions: Pseudomonas aeruginosa, PAO1, read-out: MIC, Sensititre. As for the experimental part: as §4
Experiment [21] has as its system PAO1 mutant MIN2_RW01_3, parS(V152A). Briefly: MIC, Sensititre custom plate. The class given is cell-based. Conditions: Pseudomonas aeruginosa, PAO1, read-out: MIC, Sensititre. As for the experimental part: as §4
Experiment [22] relates to PAO1 mutant MIN32_1, mexR(R63H), pilB(N349K), PA0646(V316G). Briefly: MIC, Sensititre custom plate. The class given is cell-based. As to conditions: Pseudomonas aeruginosa, PAO1, read-out: MIC, Sensititre. As to the method:
as §4

Experiment [23] concerns PAO1 mutant MIN4_RW01_1, pmrB(R429H). Briefly: MIC, Sensititre custom plate. The class given is cell-based. Conditions: Pseudomonas aeruginosa, PAO1, read-out: MIC, Sensititre. As for the experimental part: as §4
In experiment [24] the test system is PAO1 mutant MIN4_RW01_3, pmrB(M292T). Briefly: MIC, Sensititre custom plate. As to conditions: Pseudomonas aeruginosa, PAO1, read-out: MIC, Sensititre. The class given is cell-based. As to the method: as §4
In experiment [25] the test system is PAO1 mutant MIN4_RW01_4, pmrB(Y98N). Briefly: MIC, Sensititre custom plate. The class given is cell-based. Conditions: Pseudomonas aeruginosa, PAO1, read-out: MIC, Sensititre. As for the experimental part: as §4
Experiment [26] has as its system PAO1 mutant MIN8_3, pilZ(nt18InsT). Briefly: MIC, Sensititre custom plate. The class given is cell-based. As to conditions: Pseudomonas aeruginosa, PAO1, read-out: MIC, Sensititre. As for the experimental part: as §4
Experiment [27] concerns PAO1 mutant MIN8_4, pilZ(nt18InsT). Briefly: MIC, Sensititre custom plate. Conditions: Pseudomonas aeruginosa, PAO1, read-out: MIC, Sensititre. The class given is cell-based. As for the experimental part:
as §4

Experiment [28] concerns PAO1 mutant MIN4_RW01_2, pmrB(F124S). Briefly: microbe, parasite or virus in culture. The class given is cell-based. As to conditions: Pseudomonas aeruginosa, PAO1, read-out: MIC, Sensititre. As to the method:
as §4

Experiment [29] deals with PAO1 mutant MIN2_RW01_4, pmrB(M292T). Briefly: MIC, Sensititre custom plate. The class given is cell-based. As to conditions: Pseudomonas aeruginosa, PAO1, read-out: MIC, Sensititre. As to the method: as §4
Experiment [30] deals with PAO1 mutant MIN8_1, nalD(R3C), pilM(Q62X). Briefly: MIC, Sensititre custom plate. Conditions: Pseudomonas aeruginosa, PAO1, read-out: MIC, Sensititre. The class given is cell-based. As for the experimental part:
as §4

The subject of experiment [31] is PAO1 mutant MIN8_2, pilZ(nt18InsT). Briefly: MIC, Sensititre custom plate. As to conditions: Pseudomonas aeruginosa, PAO1, read-out: MIC, Sensititre. The class given is cell-based. As to the method: as §4

Take `CCN[C@@H]1C[C@H](N)[C@@H](O[C@H]2OC(CN)=CC[C@H]2N)[C@H](O)[C@H]1O[C@H]1OC[C@](C)(O)[C@H](NC)[C@H]1O` [Netilmicin, netilmicin]: the MIC is 8 mg/L in experiment [1]; 8 mg/L in [2]; 8 mg/L in experiment [3]; 8 mg/L in experiment [4]; 8 mg/L in experiment [5]; 2 mg/L in experiment [6]. Further, the MIC in experiment [7] amounted to 8 mg/L; in [8], 8 mg/L; in experiment [9], 8 mg/L; in [10], 1 mg/L.
`C[C@H]1[C@H](NC(=O)/C(=N\OC(C)(C)C(=O)O)c2csc(N)n2)C(=O)N1S(=O)(=O)O` [Aztreonam, aztreonam]: the MIC in experiment [1] came out at 8 mg/L; in [2], 8 mg/L; in experiment [3], 8 mg/L; in experiment [4], 8 mg/L; in experiment [5] it was 8 mg/L; in [6] it was 2 mg/L. The MIC in [7] was 8 mg/L; in experiment [8] it was 4 mg/L; in experiment [9], 8 mg/L; in experiment [10], 0.5 mg/L; in [11], 2 to 4 mg/L (≈ 4.59 to 9.19 µM); in experiment [12] it was 16 mg/L (≈ 36.7 µM). The MIC in [13] is 8 to 16 mg/L (≈ 18.4 to 36.7 µM); in experiment [14], 2 to 4 mg/L (≈ 4.59 to 9.19 µM); in experiment [15] it was 16 mg/L (≈ 36.7 µM); in experiment [16], no more than 2 mg/L; in [17], 16 mg/L (≈ 36.7 µM); in experiment [18], no more than 2 mg/L. In addition, the MIC in experiment [19] was 4 to 8 mg/L (≈ 9.19 to 18.4 µM); in experiment [20] it was 4 mg/L (≈ 9.19 µM); in [21] it was 4 mg/L (≈ 9.19 µM); in experiment [22], 16 mg/L (≈ 36.7 µM); in [23] it was 16 mg/L (≈ 36.7 µM); in [24] it was no more than 2 mg/L. The MIC in experiment [25] was no more than 2 mg/L; in [26] it was 16 mg/L (≈ 36.7 µM); in experiment [27], 16 mg/L (≈ 36.7 µM); in [28], no more than 2 mg/L.
Regarding `CO/N=C(\C(=O)N[C@@H]1C(=O)N2C(C(=O)[O-])=C(C[N+]3(C)CCCC3)CS[C@H]12)c1csc(N)n1` [Cefepime, cefepime], the MIC in [1] is 4 mg/L; in [2], 4 mg/L; in experiment [3], 8 mg/L; in experiment [4], 8 mg/L; in experiment [5], 2 mg/L; in experiment [6], 4 mg/L. Besides, the MIC was 0.5 mg/L in experiment [7]; 2 mg/L in experiment [9]; 1 mg/L in experiment [10]; no more than 1 mg/L in [11]; 4 mg/L (≈ 8.32 µM) in experiment [12]; 4 mg/L (≈ 8.32 µM) in [13]. For the same molecule, the MIC in experiment [14] is 4 mg/L (≈ 8.32 µM); in [15] it was 4 mg/L (≈ 8.32 µM); in experiment [16] it was no more than 1 mg/L; in [17], 4 mg/L (≈ 8.32 µM); in experiment [18], no more than 1 mg/L; in [20], 4 mg/L (≈ 8.32 µM). In addition, the MIC in experiment [21] is 4 mg/L (≈ 8.32 µM); in experiment [29], 4 mg/L (≈ 8.32 µM); in experiment [22], 4 mg/L (≈ 8.32 µM); in experiment [23] it was 4 to 8 mg/L (≈ 8.32 to 16.6 µM); in experiment [24], no more than 1 mg/L; in experiment [25], no more than 1 mg/L. For the same molecule, the MIC in experiment [30] is 4 mg/L (≈ 8.32 µM); in [31] it was 4 mg/L (≈ 8.32 µM); in experiment [26], 4 mg/L (≈ 8.32 µM); in experiment [27], 4 mg/L (≈ 8.32 µM); in experiment [28], no more than 1 mg/L. The “Antibiotic MIC + RW01 100 mg/L” value in [8] (strain PAOΔmexR, MIC of the antibiotic with fixed 100 mg/L RW01) is given as 0.5 mg/L. Moreover, the “Potentiation (fold)” value in experiment [8] (strain PAOΔmexR, antibiotic MIC alone vs with RW01 100 mg/L) is on record as no less than 8 fold.
